This note sets out measurements from ChEMBL document CHEMBL1153387 (J Med Chem, 2009).

Data set [1] is described as follows: Metabolic stability in rat serum assessed as half time of disappearance at 1 mM by MALDI-TOF mass spectrometry assay. The following applies: read-out: T50. The data set is classed as ADME, cell-free.
Data set [2] can be described thus: Metabolic stability in human serum assessed as half time of disappearance at 1 mM by MALDI-TOF mass spectrometry assay. In kind it is ADME, cell-free. Particulars: read-out: T50.
The test system of data set [3] is Rattus norvegicus. Put plainly: Hypothermic activity in Sprague-Dawley rat assessed as decrease in core body temperature at 5 mg/kg, ip at time of maximal body temperature decrease. Particulars: route intraperitoneal. The data set is classed as functional.
In data set [4] the test system is Serum. Kind of data set: Metabolic stability in rat serum assessed as compound degradation rate at 1 mM by MALDI-TOF mass spectrometry assay. The data set is classed as ADME, cell-free. The following applies: 1000 µM.
In data set [5] the target is T1, Neurotensin receptor type 1 (Homo sapiens, UniProt P30989). Put plainly: Displacement of [125I]I-Tyr(3)NT from human NTR1.
T1 sequence (P30989 whole entry): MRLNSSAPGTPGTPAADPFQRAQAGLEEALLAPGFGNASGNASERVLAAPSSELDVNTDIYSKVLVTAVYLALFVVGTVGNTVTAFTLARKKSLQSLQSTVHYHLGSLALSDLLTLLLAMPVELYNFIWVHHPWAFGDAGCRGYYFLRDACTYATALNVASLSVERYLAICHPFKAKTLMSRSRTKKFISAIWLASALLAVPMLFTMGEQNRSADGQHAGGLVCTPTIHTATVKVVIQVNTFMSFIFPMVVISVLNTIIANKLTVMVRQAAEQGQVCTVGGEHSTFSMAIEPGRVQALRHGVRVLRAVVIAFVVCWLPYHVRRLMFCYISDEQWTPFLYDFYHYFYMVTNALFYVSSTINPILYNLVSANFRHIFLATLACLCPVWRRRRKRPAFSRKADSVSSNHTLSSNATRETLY
Data set [6] deals with Serum. Kind of data set: Metabolic stability in human serum assessed as compound degradation rate at 1 mM by MALDI-TOF mass spectrometry assay. The data set is classed as ADME, cell-free. Particulars: 1000 µM.
Data set [7] has as its system Rattus norvegicus. Put plainly: Hypothermic activity in Sprague-Dawley rat assessed as time duration of maximal body temperature decrease at 5 mg/kg, ip. In kind it is functional. Particulars: route intraperitoneal.
Data set [8] deals with T1, Neurotensin receptor type 1. Put plainly: Binding affinity to human NTR1.
Data set [9] shares this target. Kind of data set: Agonist activity at NTR1 in human HT-29 cells assessed as increase in intracellular calcium concentration by FLIPR assay. In kind it is functional, cell-based. A general note: Calcium assays in cells follow changes in intracellular calcium, usually with a dye or a luminescent sensor.
The target is the same in data set [10]. Put plainly: Agonist activity at NTR1 in human HT-29 cells assessed as increase in intracellular calcium concentration in presence of NTR1 antagonist SR-48692 by FLIPR assay. In kind it is functional, cell-based.
Data set [11] concerns Rattus norvegicus. Put plainly: Hypothermic activity in Sprague-Dawley rat assessed as decrease in core body temperature at 5 mg/kg, ip measured up to 150 mins. The data set is classed as functional, organism-based. Details: dose 5 mg/kg.

pEC50, pIC50, pKi: −log10 of the molar value. Activity calls are given as the source filed them. No cut-off for these calls is given here. Non-standard residues stand in square brackets, D forms with d. Residues, ends and D or L forms follow the SMILES beside them. *: point of attachment. X1 = [N-]=[N+]=N[C@@H](CCCNC(=N)N)C(=O)*; X2 = [N-]=[N+]=N[C@@H](CCCCN)CC(=O)*; NMeR = CN[C@@H](CCCNC(=N)N)C(=O)O; Tle = CC(C)(C)[C@H](N)C(=O)O; X3 = C[C@](N)(CCCCN)CC(=O)*; β3hK = NCCCC[C@H](N)CC(=O)O

With `CN[C@@H](CCCNC(=N)N)C(=O)N[C@@H](CCCCN)C(=O)N1CCC[C@H]1C(=O)N[C@@H](Cc1c[nH]c2ccccc12)C(=O)N[C@H](C(=O)N[C@@H](CC(C)C)C(=O)O)C(C)(C)C` (H-[NMeR]KPW[Tle]L-OH), the half-life at 1000 µM was determined as 162 h in data set [1] and 123 h in [2]. The Activity was -5.52 °C in the data set with Rattus norvegicus [3], 0.052 µmol/min in the data set on Serum [4] and 0.068 µmol/min with Serum [6]. In data set [5], the pIC50 (commonly the negative decadic logarithm of the IC50, by convention in mol/L) is 6.62. The pKi (commonly the Ki on a negative log10 scale, so that one unit is a factor of ten) is 6.74 in data set [5] and 7.02 in data set [8]. The Time with Rattus norvegicus [7] is recorded as 270 min. In addition, the pEC50 (commonly the EC50 on a negative log10 scale, so that one unit is a factor of ten) in [9] is 6.70.

For `CC(C)C[C@H](NC(=O)[C@@H](NC(=O)[C@H](Cc1ccc(O)cc1)NC(=O)[C@@H]1CCCN1C(=O)[C@H](CCCNC(=N)N)NC(=O)C[C@@H](N)CCCCN)C(C)(C)C)C(=O)O` (H-[β3hK]RPY[Tle]L-OH), the half-life at 1000 µM in data set [1] stood at 0.21 h; in [2], 0.25 h. The Activity was -1.53 °C in the data set with Rattus norvegicus [3], 39.9 µmol/min with Serum [4] and 33.4 µmol/min in the data set on Serum [6]. In data set [5], this compound showed a pIC50 of 7.97. The pKi in [5] is 8.09. Moreover, in data set [10], the result was inactive. Further, the Time with Rattus norvegicus [7] came to 90 min. Further, the pEC50 in data set [9] is 8.21.

Regarding `CC(C)C[C@H](NC(=O)[C@@H](NC(=O)[C@H](Cc1c[nH]c2ccccc12)NC(=O)[C@@H]1CCCN1C(=O)[C@H](CCCCN)NC(=O)[C@H](CCCNC(=N)N)N=[N+]=[N-])C(C)(C)C)C(=O)O` (X1-KPW[Tle]L-OH), the half-life at 1000 µM in data set [1] amounted to 67.8 h; in [2], 120 h. Besides, the Activity in the data set on Rattus norvegicus [3] was -4.29 °C; with Serum [4], 0.123 µmol/min; in the data set on Serum [6], 0.07 µmol/min. The compound further had a pIC50 in [5] of 6.85. The pKi in data set [5] was 6.98. Moreover, in data set [10], the result was inactive. Further, the Time with Rattus norvegicus [7] turned out to be 240 min. Also, the pEC50 in [9] is 6.82.

Regarding `CC(C)C[C@H](NC(=O)[C@@H](NC(=O)[C@H](Cc1ccc(O)cc1)NC(=O)[C@@H]1CCCN1C(=O)[C@H](CCCNC(=N)N)NC(=O)C[C@H](CCCCN)N=[N+]=[N-])C(C)(C)C)C(=O)O` (X2-RPY[Tle]L-OH), the half-life at 1000 µM in [1] was found to be 52 h; in [2] it was 62.7 h. The results for the Activity with Rattus norvegicus [3], in the data set with Serum [4] and in the data set with Serum [6] were -2.57 °C, 0.16 µmol/min and 0.133 µmol/min, respectively. This compound showed a pIC50 in data set [5] of 8.14. For the same compound, the pKi in data set [5] was 8.26; in [8], 8.35. The Time in the data set with Rattus norvegicus [7] is 120 min. The pEC50 in data set [9] is 8.14.

Consider `CC(C)C[C@H](NC(=O)[C@@H](NC(=O)[C@H](Cc1ccc(O)cc1)NC(=O)[C@@H]1CCCN1C(=O)[C@H](CCCNC(=N)N)NC(=O)C[C@@](C)(N)CCCCN)C(C)(C)C)C(=O)O` (X3-RPY[Tle]L-OH), for which the results for the half-life at 1000 µM in [1] and in data set [2] were 49.7 h and 42.8 h, respectively. Moreover, the figures for the Activity with Rattus norvegicus [3], in the data set on Serum [4] and in the data set with Serum [6] were -2.13 °C, 0.166 µmol/min and 0.194 µmol/min, respectively. The pIC50 in data set [5] was 7.86. Besides, the pKi was 7.98 in [5] and 8.00 in data set [8]. For the same compound, in the data set with Rattus norvegicus [7], the Time was 150 min. Also, in [9], the negative logarithm of the EC50 (pEC50) was 8.19.

`O=C(CCCN1CCC(O)(c2ccc(Cl)cc2)CC1)c1ccc(F)cc1` [HALOPERIDOL]: in the data set on Rattus norvegicus [3], the Activity was -1.34 °C. Also, the result in the data set with Rattus norvegicus [11] was Active. Further, in the data set on Rattus norvegicus [7], the Time was found to be 90 min.
